According to ChEMBL document CHEMBL1800021, “Antineoplastic activity of the thiazolo[5,4-b]quinoline derivative D3CLP in K-562 cells is mediated through effector caspases activation” (Eur J Med Chem, 2011):
Activity calls are given as the source filed them. No cut-off for these calls is given here.

How the values were obtained:
K562 [1] = test: Induction of apoptosis in human K562 cells assessed as effector caspases activity using Ac-DEVD-AMC as substrate after 48 hrs by fluorimetry; assay type: functional, cell-based
K562 [2] = test: Ratio of IC50 for human PMBC to IC50 for human K562 cells
K562 [3] = test: Cell cycle arrest in human K562 cells assessed as accumulation at G2/M phase at 7.8 uM after 6 hrs by propidium iodide staining-based FACS analysis; assay type: functional
K562 [4] = test: Cytotoxicity against human K562 cells after 48 hrs by modified MTT assay; assay type: functional, cell-based; settings: K562, 48 h
K562 [5] = test: Induction of apoptosis in human K562 cells assessed as subdiploid peak at 7.8 uM after 12 to 24 hrs by propidium iodide staining-based FACS analysis; assay type: functional, cell-based
[6] = Cytotoxicity against human PMBC after 48 hrs by modified MTT assay
K562 [7] = test: Induction of apoptosis in human K562 cells assessed as increase in effector caspases activity using Ac-DEVD-AMC as substrate after 3 to 24 hrs by fluorimetry; assay type: functional, cell-based
K562 [8] = test: Induction of apoptosis in human K562 cells assessed as chromatin condensation at 7.8 uM after 12 to 24 hrs by TUNEL assay; assay type: functional, cell-based
K562 [9] = test: Induction of apoptosis in human K562 cells assessed as DNA fragmentation at 7.8 uM after 12 to 24 hrs by TUNEL assay; assay type: functional, cell-based
K562 [10] = test: Induction of cell cycle arrest in human K562 cells assessed as accumulation at G2/M phase at 0.25 uM after 6 hrs by propidium iodide staining-based FACS analysis; assay type: functional
K562 [11] = test: Induction of apoptosis in human K562 cells assessed as chromatin condensation at 0.25 uM after 24 to 48 hrs by TUNEL assay; assay type: functional, cell-based
K562 [12] = test: Induction of apoptosis in human K562 cells assessed as appearance of apoptotic bodies at 0.25 uM after 24 to 48 hrs by TUNEL assay; assay type: functional, cell-based
K562 [13] = test: Induction of cell cycle arrest in human K562 cells assessed as complete arrest at G2/M phase at 0.25 uM after 12 hrs by propidium iodide staining-based FACS analysis; assay type: functional

Compound: CCN(CC)CCCNc1nc2c(Nc3cccc(Cl)c3)c3ccccc3nc2s1
- Activity (K562 [1]): inactive
- Ratio IC50 (K562 [2]): 4
- Activity (K562 [3]): Active
- IC50 (K562 [4]): 7.82 µM
- Activity (K562 [5]): Active
- IC50 [6]: 28.7 µM
- Activity (K562 [7]): Active
- Activity (K562 [8]): Active
- Activity (K562 [9]): Active

Compound: CC(=O)O[C@H]1C(=O)[C@@]2(C)[C@H]([C@H](OC(=O)c3ccccc3)[C@]3(O)C[C@H](OC(=O)[C@H](O)[C@@H](NC(=O)c4ccccc4)c4ccccc4)C(C)=C1C3(C)C)[C@]1(OC(C)=O)CO[C@@H]1C[C@@H]2O
- Activity (K562 [10]): Active
- Activity (K562 [11]): Active
- Activity (K562 [12]): Active
- Activity (K562 [13]): Active
